From patent US12435091B2, “RNA-binding protein multimerization inhibitors and methods of use thereof” (THE UAB RESEARCH FOUNDATION, priority 2020, dated 2025) come the findings set out here.

pIC50: −log10 of the molar value. Like-named read-outs stand apart in the source and are kept apart here.

Test [1] addresses T1, HuR (Homo sapiens, UniProt Q15717).
T1 construct: expressed in transfected cells; host or cells: U251 glioma cells, doxycycline-inducible constructs
Nature of the test: cell-based split firefly luciferase-HuR dimerization assay. Conditions: for pIC50: read-out: HuR IC50. As to the method:
(§1) The oncogenic activity of HuR is driven by subcellular localization into the cytoplasm and formation of multimers of HuR. To develop cell based assays to characterize the ability of small molecules to disrupt this process, a split luciferase assay detecting the formation of HuR dimers was developed. The assays were performed in 96 well plates with clear bottom (Corning Inc., Corning, NY). Cells with designed constructs (30,000-50,000 in number) were plated per well; the constructs were induced by doxycycline (0.75 ug/ml) for 48 hours. The evaluated compounds at different concentrations and the corresponding vehicle as the control were administered for 6 hours. The luminescence signals were detected by using InfinitiM200 plate reader (TECAN, Morrisville, NC) in the presence of the luciferase substrate luciferin (D-Luciferin, potassium salt), which was purchased from GoldBio (St Louis, MO). A multichannel pipette (XL 3000I™, Denville Scientific, South Plainfield, NJ) was used in all procedures to ensure the experiment quality.
The assay used the coding sequence of HuR in frame with the N-terminus of firefly luciferase or the C-terminus as depicted in FIG. 2A. When HuR forms dimers in this case, luciferase is generated and with luciferin present, luminescence is generated.
(§2) Squares represent luminescence signal from reporter representing HuR dimers (U251 cells co-expressing HuR-Nluc and HuR-Cluc constructs); circles represent luminescence signal from control reporter (U251 cells expressing Fluc construct). Results are shown as mean+SD.

Test [2] relates to U251 cells expressing Fluc construct. Description: control Fluc (full length luciferase) reporter assay in U251 cells. The test is classed as cell-based. The conditions noted are these: Homo sapiens, U-251, 6 h, read-out: Fluc Imax % Inh; for inhibition at 50 µM: Concn 50 uM; for inhibition at 100 µM: Concn 100 uM. As to the method:
as §1, with “quality. […]” for “quality.”
as §2

Setting [3] is: split luciferase HuR dimerization assay, compounds administered for 6 hours.
Where [4] appears, read: U251 cells co-expressing HuR-Nluc and HuR-Cluc, 6 hours of treatment.

T1 sequence (Q15717 whole entry): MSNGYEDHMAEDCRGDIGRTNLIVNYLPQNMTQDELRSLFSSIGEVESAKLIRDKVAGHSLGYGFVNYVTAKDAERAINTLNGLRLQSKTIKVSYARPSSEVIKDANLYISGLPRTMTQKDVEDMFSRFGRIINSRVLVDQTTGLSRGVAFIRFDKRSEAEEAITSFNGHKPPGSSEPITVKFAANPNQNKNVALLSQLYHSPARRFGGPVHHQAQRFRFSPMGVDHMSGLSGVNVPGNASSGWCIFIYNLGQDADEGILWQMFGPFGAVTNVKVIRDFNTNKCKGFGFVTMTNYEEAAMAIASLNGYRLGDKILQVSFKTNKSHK

Turning to `CN1CCC(N(C)c2ccc3ncc(-c4ccc5cn[nH]c5c4)n3n2)CC1` [Compound 25, 3-(1H-Indazol-6-yl)-N-methyl-N-(1-methylpiperidin-4-yl)imidazo[1,2-b]pyridazin-6-amine], the pIC50 (commonly −log10 of the IC50, conventionally taken in molar units) in test [1] (setting [3]) is under 4.30.

For the compound `CN(c1ccc2ncc(-c3ccc4cn[nH]c4c3)n2n1)C1CCCCC1` [Compound 22, N-Cyclohexyl-3-(1H-indazol-6-yl)-N-methylimidazo[1,2-b]pyridazin-6-amine], the “HuR N/C Imax % Inh” value in test [1] (Concn 50 uM) was 93%. For the same compound, the pIC50 in test [1] (setting [4]) and in test [1] (setting [3]) was 5.05 throughout. In addition, the inhibition at 50 µM in test [2] came out at 32%. Take `Cc1nn(C)c2ccc(-c3cnc4ccc(NC5CCOCC5)nn34)cc12` [Compound 43, 3-(1,3-Dimethyl-1H-indazol-5-yl)-N-(tetrahydro-2H-pyran-4-yl)imidazo[1,2-b]pyridazin-6-amine]: the “HuR IC50” value in test [1] (setting [3]) is “Insoluble”. Regarding `CCCN(C)c1ccc2ncc(-c3ccc4c(C)nn(C)c4c3)n2n1` [Compound 36, 3-(1,3-Dimethyl-1H-indazol-6-yl)-N-methyl-N-propylimidazo[1,2-b]pyridazin-6-amine], the pIC50 in test [1] (setting [3]) was under 4.30.

`Cc1cc(-c2cnn3c(NC[C@H]4C[C@@](C)(O)C4)cc(Oc4cccnc4)nc23)ccc1C(=O)NC1CC1` [SRI-41646]: the “HuR N/C Imax % Inh” value in test [1] (Concn 100 uM) was determined as 3%. In addition, in test [1] (setting [4]), the pIC50 was under 4.00. Moreover, the inhibition at 100 µM in test [2] worked out at 15%. As to `Cc1nn(C)c2cc(-c3cnc4ccc(N(C)C5CCOCC5)nn34)ccc12` [Compound 35, 3-(1,3-Dimethyl-1H-indazol-6-yl)-N-methyl-N-(tetrahydro-2H-pyran-4-yl)imidazo[1,2-b]pyridazin-6-amine], the negative logarithm of the IC50 (pIC50) in test [1] (setting [3]) is under 4.30. On to `CS(=O)(=O)c1ccc(-c2cnc3ccc(NC4CCOCC4)nn23)cc1` [Compound 6], for which the pIC50 in test [1] (setting [3]) is under 4.52.

As for `O=C(c1ccc2nsnc2c1)N1CCN(C(=O)C2CC2c2cccs2)CC1` (stereo not drawn) [SRI-43650], the “HuR N/C Imax % Inh” value in test [1] (Concn 50 uM) is reported as 0%. For the same compound, the inhibition at 50 µM in test [2] came to 0%. `O=C(c1ccc(=O)[nH]c1)N1CCN(C(=O)C2CC2c2ccccc2)CC1` (stereo not drawn) [SRI-43653]: in test [1] (Concn 50 uM), the “HuR N/C Imax % Inh” value came out at 0%. For the same compound, in test [2], the inhibition at 50 µM worked out at 0%. For `c1cc2cn[nH]c2cc1-c1cnc2ccc(N(CC3CC3)C3CCOCC3)nn12` [Compound 28, N-(Cyclopropylmethyl)-3-(1H-indazol-6-yl)-N-(tetrahydro-2H-pyran-4-yl)imidazo[1,2-b]pyridazin-6-amine], in test [1] (setting [3]), the pIC50 is under 4.30. Regarding `CC(=O)c1n[nH]c2ccc(-c3cnc4ccc(N(C)C5CCOCC5)nn34)cc12` [Compound 54, 1-(5-(6-(Methyl(tetrahydro-2H-pyran-4-yl)amino)imidazo[1,2-b]pyridazin-3-yl)-1H-indazol-3-yl)ethan-1-one], the pIC50 in test [1] (setting [3]) was under 4.30. For the compound `COc1ncccc1-c1cnn2ccc(N3CCN(C(=O)OC(C)C)CC3)nc12` [SRI-43414], the “HuR N/C Imax % Inh” value in test [1] (Concn 50 uM) amounted to 45%. For the same compound, the pIC50 in test [1] (setting [4]) is under 4.30. The inhibition at 50 µM in test [2] worked out at 28%. In the case of `OCc1ccccc1-c1cnc2ccc(NC3CCOCC3)nn12` [Compound 7], the pIC50 in test [1] (setting [3]) was under 4.00.

Take `O=C(CCn1ccc(=O)[nH]c1=O)N1CCN(C(=O)C2CC2c2ccc3c(c2)OCO3)CC1` (stereo not drawn) [SRI-43654]: the “HuR N/C Imax % Inh” value in test [1] (Concn 50 uM) amounted to 0%. Also, the inhibition at 50 µM in test [2] worked out at 0%. In the case of `COc1ccc(-c2cnc3ccc(NC4CCCCC4)nn23)cc1` [Compound 15], the pIC50 in test [1] (setting [3]) was under 4.52. In the case of `Clc1ccc2ncc(-c3ccc4cn[nH]c4c3)n2n1` [SRI-43183], in test [1] (Concn 100 uM), the “HuR N/C Imax % Inh” value is reported as 76%. Further, the inhibition at 100 µM in test [2] was 20%.

Take `c1cc2cn[nH]c2cc1-c1cnc2ccc(OC3CCOCC3)nn12` [Compound 58]: in test [1] (Concn 50 uM), the “HuR N/C Imax % Inh” value came to 82%. In addition, in test [1] (setting [3]), the pIC50 is 5.52. In addition, the inhibition at 50 µM in test [2] was 23%. As for `Brc1cnc2ccc(NC3CCOCC3)nn12` [SRI-42219], in test [1] (Concn 50 uM), the “HuR N/C Imax % Inh” value came to 82%. Besides, the pIC50 in test [1] (setting [4]) was 4.66 to 4.70. Also, in test [2], the inhibition at 50 µM amounted to 32%. Take `CN(c1ccc2ncc(-c3ccc4[nH]cnc4c3)n2n1)C1CCOCC1` [Compound 37, 3-(1H-Benzo[d]imidazol-5-yl)-N-methyl-N-(tetrahydro-2H-pyran-4-yl)imidazo[1,2-b]pyridazin-6-amine]: in test [1] (Concn 50 uM), the “HuR N/C Imax % Inh” value is 87%. Further, the pIC50 in test [1] (setting [4]) and in test [1] (setting [3]) was 5.10 each time. The inhibition at 50 µM in test [2] worked out at 14%. As for `CN1CCN(c2ccc3ncc(-c4ccc5[nH]ncc5c4)n3n2)CC1` [Compound 52, 3-(1H-Indazol-5-yl)-6-(4-methylpiperazin-1-yl)imidazo[1,2-b]pyridazine], in test [1] (Concn 50 uM), the “HuR N/C Imax % Inh” value was 90%. The pIC50 in test [1] (setting [4]) and in test [1] (setting [3]) was 5.10 each time. For the same compound, the inhibition at 50 µM in test [2] stood at 13%. Regarding `CCCN(C)c1ccc2ncc(-c3ccc4[nH]ncc4c3)n2n1` [Compound 49, 3-(1H-Indazol-5-yl)-N-methyl-N-propylimidazo[1,2-b]pyridazin-6-amine], the “HuR N/C Imax % Inh” value in test [1] (Concn 100 uM) was found to be 89%. Besides, the pIC50 in test [1] (setting [4]) and in test [1] (setting [3]) was 6.22 throughout. Also, in test [2], the inhibition at 100 µM was determined as 12%. In the case of `Clc1ncc2nnn(-c3ccc4cn[nH]c4c3)c2n1` [SRI-42123], the “HuR N/C Imax % Inh” value in test [1] (Concn 50 uM) is 0%. For the same compound, the inhibition at 50 µM in test [2] stood at 0%. With `FC(F)(F)c1nnc2ccc(NCCc3c[nH]c4ccccc34)nn12` [SRI-41639], the “HuR N/C Imax % Inh” value in test [1] (Concn 100 uM) was 49%. Besides, the pIC50 in test [1] (setting [4]) was under 4.00. The inhibition at 100 µM in test [2] amounted to 17%. Turning to `Cc1nn(C)c2ccc(-c3cnc4ccc(N(C)C5CCOCC5)nn34)cc12` [Compound 44, 3-(1,3-Dimethyl-1H-indazol-5-yl)-N-methyl-N-(tetrahydro-2H-pyran-4-yl)imidazo[1,2-b]pyridazin-6-amine], the “HuR IC50” value in test [1] (setting [3]) is recorded as “Insoluble”. Take `CC(=O)Nc1cccc(-c2cnc3ccc(NC4CCOCC4)nn23)c1` [Compound 9]: the pIC50 in test [1] (setting [3]) was under 4.52. For `CCCN(C)c1ccc2ncc(-c3cccc(N(C)C)c3)n2n1` [Compound 16, 3-(3-(Dimethylamino)phenyl)-N-methyl-N-propylimidazo[1,2-b]pyridazin-6-amine], in test [1] (setting [3]), the pIC50 was under 4.30. The same measure, in the same setting: with `Cc1n[nH]c2cc(-c3cnc4ccc(NC5CCOCC5)nn34)ccc12` [Compound 31, 3-(3-Methyl-1H-indazol-6-yl)-N-(tetrahydro-2H-pyran-4-yl)imidazo[1,2-b]pyridazin-6-amine] the figure was under 4.30; with `CCCN(C)c1ccc2ncc(-c3ccc4c(C)n[nH]c4c3)n2n1` [Compound 33, N-Methyl-3-(3-methyl-1H-indazol-6-yl)-N-propylimidazo[1,2-b]pyridazin-6-amine], 4.60.

As for `c1ccc(-c2cnc3ccc(NC4CCOCC4)nn23)cc1` [Compound 11], the pIC50 in test [1] (setting [3]) is 4.74. In the case of `c1cc2cc(-c3cnc4ccc(NC5CCOCC5)nn34)ccc2o1` [Compound 10], the pIC50 in test [1] (setting [3]) is under 4.52. Regarding `CCCN(C)c1ccc2ncc(-c3cccc4cnccc34)n2n1` [Compound 17, 3-(Isoquinolin-5-yl)-N-methyl-N-propylimidazo[1,2-b]pyridazin-6-amine], the pIC50 in test [1] (setting [3]) was under 4.30. Turning to `c1cncc(-c2cnc3ccc(NC4CCOCC4)nn23)c1` [Compound 8], the pIC50 in test [1] (setting [3]) was under 4.52. In the case of `c1cnc2cc(-c3cnc4ccc(NC5CCOCC5)nn34)ccc2n1` [Compound 12], in test [1] (setting [3]), the pIC50 is 4.92.

In the case of `Cc1nn(C)c2cc(-c3cnc4ccc(NC5CCOCC5)nn34)ccc12` [Compound 34, 3-(1,3-Dimethyl-1H-indazol-6-yl)-N-(tetrahydro-2H-pyran-4-yl)imidazo[1,2-b]pyridazin-6-amine], the pIC50 in test [1] (setting [3]) is 4.40.

As for `CN(c1ccc2ncc(-c3ccccc3)n2n1)C1CCOCC1` [Compound 14, N-Methyl-3-phenyl-N-(tetrahydro-2H-pyran-4-yl)imidazo[1,2-b]pyridazin-6-amine], in test [1] (setting [3]), the pIC50 was 4.64. `CCCN(C)c1ccc2ncc(-c3cnc4[nH]ncc4c3)n2n1` [Compound 56, N-Methyl-N-propyl-3-(1H-pyrazolo[3,4-b]pyridin-5-yl)imidazo[1,2-b]pyridazin-6-amine]: in test [2], the inhibition at 50 µM came to 5%.
